According to US20240400555A1 (Initial Therapeutics, Inc., priority 2023, published 2024):
Read-outs that look alike come from different tables or passages of the source.

System: MV-4-11 cells
Assay: Cell Viability Assay in MV-4-11 Cells
Type: cell-based
Conditions: Homo sapiens, MV4-11, 72 h
Method in brief: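 MV-4-11 cells at 7,000/well in IMDM with 10% FBS, exposed to compound for 72 h. Viability by CellTiter-Glo luminescence, normalized to DMSO as 100%, fitted with a four-parameter curve.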

[1] = MV-4-11 cells, 72 h, Cell-Titer Glo, read-out: IC50

SMILES	IC50 [1]	IC50
Cc1cccc2ccnc(N(C(=O)c3ccc(Nc4nccc(CN5CCN(C)CC5)n4)cc3F)[C@@H]3CCCNC3)c12 [Example 934, (R)-2-fluoro-N-(8-methylisoquinolin-1-yl)-4-((4-((4-methylpiperazin-1-yl)methyl)pyrimidin-2-yl)amino)-N-(piperidin-3-yl)benzamide]	120 nM	–
Cn1cc(-c2ccc(C(=O)N(c3nccc4sc(-c5cccc(C(N)=O)c5)cc34)[C@@H]3CCCNC3)c(F)c2)nn1 [Example 480, N-[2-(3-carbamoylphenyl)thieno [3,2-c]pyridin-4-yl]-2-fluoro-4-(1-methyltriazol-4-yl)-N-[(3R)-3-piperidyl] benzamide]	540 nM	–
COC(=O)c1ccc(-c2cc3c(N(C(=O)c4ccc(-n5nnc6cccnc65)cc4F)[C@@H]4CCCNC4)nccc3s2)cc1 [Example 375, methyl 4-[4-[[2-fluoro-4-(triazolo[4,5-b]pyridin-3-yl)benzoyl]-[(3R)-3-piperidyl]amino]thieno[3,2-c]pyridin-2-yl]benzoate]	600 nM	–
COCCc1nnc(-c2ccc(C(=O)N(c3nccc4cccc(C)c34)[C@@H]3CCCNC3)cn2)s1 [Example 910, (R)-6-(5-(2-methoxyethyl)-1,3,4-thiadiazol-2-yl)-N-(8-methylisoquinolin-1-yl)-N-(piperidin-3-yl)nicotinamide]	97 nM	–
CNC(=O)C#Cc1cc2c(N(C(=O)c3ccc(-c4cn(C)nn4)cc3F)[C@@H]3CCCNC3)nccc2s1 [Example 550, 2-fluoro-N-[2-[3-(methylamino)-3-oxo-prop-1-ynyl]thieno[3,2-c]pyridin-4-yl]-4-(1-methyltriazol-4-yl)-N-[(3R)-3-piperidyl] benzamide]	> 6000 nM	–
O=C(c1ccc(-n2nnc3cccnc32)cc1F)N(c1nccc2sc(Cc3ccccc3)cc12)[C@@H]1CCCNC1 [Example 466, N-(2-benzylthieno[3,2-c]pyridin-4-yl)-2-fluoro-N-[(3R)-3-piperidyl]-4-(triazolo[4,5-b]pyridin-3-yl)benzamide]	440 nM	–
O=C(c1ccc(-n2nnc3cccnc32)cc1F)N(c1nccc2sc(-c3cccc(CO)c3)cc12)[C@@H]1CCCNC1 [Example 424, 2-fluoro-N-[2-[3-(hydroxymethyl)phenyl]thieno[3,2-c]pyridin-4-yl]-N-[(3R)-3-piperidyl]-4-(triazolo[4,5-b]pyridin-3-yl)benzamide]	110 nM	–
Cc1cccc2ccnc(N(C(=O)c3ccc(C#N)cc3-c3cccnc3)[C@@H]3CCCNC3)c12 [Example 334, 4-cyano-N-(8-methyl-1-isoquinolyl)-N-[(3R)-3-piperidyl]-2-(3-pyridyl)benzamide]	–	> 10000 nM
Cn1cc(-c2ccc(C(=O)N(c3nccc4cccc(C=CCO)c34)[C@@H]3CCCNC3)cc2)nn1 (stereo in doubt) [Example 338, (R,Z)—N-(8-(3-hydroxyprop-1-en-1-yl)isoquinolin-1-yl)-4-(1-methyl-1H-1,2,3-triazol-4-yl)-N-(piperidin-3-yl)benzamide]	> 10000 nM	–
O=C(c1ccc(Nc2ncccn2)cc1F)N(c1nccc2sc(-c3ccncc3)cc12)[C@@H]1CCCNC1 [Example 433]	26 nM	–
Cc1nnc(-c2ccc(C(=O)N(c3nccc4scc(Cl)c34)[C@@H]3CCCNC3)c(F)c2)s1 [Example 653, N-(3-chlorothieno[3,2-c] 690yridine-4-yl)-2-fluoro-4-(5-methyl-1,3,4-thiadiazol-2-yl)-N-[(3R)-3-piperidyl] benzamide]	180 nM	–
Cc1cc(C2=NOC(C)(C)C2=O)ccc1C(=O)N(c1nccc2sc(C#CCO)cc12)[C@@H]1CCCNC1 [Example 737, (R)-4-(5,5-dimethyl-4-oxo-4,5-dihydroisoxazol-3-yl)-N-(2-(3-hydroxyprop-1-yn-1-yl)thieno[3,2-c]pyridin-4-yl)-2-methyl-N-(piperidin-3-yl)benzamide]	2100 nM	–
Cc1cccc2ccnc(N(C(=O)c3ccc(Nc4ncnc(N5CCCCC5)n4)cc3F)[C@@H]3CCCNC3)c12 [Example 969, 2-fluoro-N-(8-methylisoquinolin-1-yl)-4-{[4-(piperidin-1-yl)-1,3,5-triazin-2-yl]amino}-N-[(3R)-piperidin-3-yl]benzamide]	45 nM	–
O=C(c1ccc(-n2nnc3cccnc32)cc1F)N(c1nccc2cc(-c3cccs3)ccc12)[C@@H]1CCCNC1 [Example 368, (R)-4-(3H-[1,2,3]triazolo[4,5-b]pyridin-3-yl)-2-fluoro-N-(piperidin-3-yl)-N-(6-(thiophen-2-yl)isoquinolin-1-yl)benzamide]	500 nM	–
Cc1cccc2ccnc(N(C(=O)c3ccc(C#N)c(-c4ccc(-c5ccncc5)cc4)c3)[C@@H]3CCCNC3)c12 [Example 330, 4-cyano-N-(8-methyl-1-isoquinolyl)-N-[(3R)-3-piperidyl]-3-[4-(4-pyridyl)phenyl]benzamide]	90 nM	–
Cc1cccc2ccnc(N(C(=O)c3ccc(Nc4ncc5ccsc5n4)cc3F)[C@@H]3CCCNC3)c12 [Example 823, (R)-2-fluoro-N-(8-methylisoquinolin-1-yl)-N-(piperidin-3-yl)-4-(thieno[2,3-d]pyrimidin-2-ylamino)benzamide]	130 nM	–
Cc1nsc(-c2ccc(C(=O)N(c3nccc4cc(F)cc(C)c34)[C@@H]3CCCNC3)cc2)n1 [Example 774, (R)—N-(6-fluoro-8-methylisoquinolin-1-yl)-4-(3-methyl-1,2,4-thiadiazol-5-yl)-N-(piperidin-3-yl)benzamide]	1500 nM	–
Cc1cc(C2CCN(C(=O)N(c3nccc4c(F)ccc(C)c34)[C@@H]3CCCNC3)CC2)on1 [Example 659, (R)—N-(5-fluoro-8-methylisoquinolin-1-yl)-4-(3-methylisoxazol-5-yl)-N-(piperidin-3-yl)piperidine-1-carboxamide]	510 nM	–
Cc1nnc(-c2ccc(C(=O)N(c3nccc4scc(C)c34)[C@@H]3CCCNC3)nc2)s1 [Example 810, (R)-5-(5-methyl-1,3,4-thiadiazol-2-yl)-N-(3-methylthieno[3,2-c]pyridin-4-yl)-N-(piperidin-3-yl)picolinamide]	170 nM	–
Cc1cccc2ccnc(N(C(=O)c3cccc(C#CCCC(=O)N4CCOCC4)c3)[C@@H]3CCCNC3)c12 [Example 519, (R)—N-(8-methylisoquinolin-1-yl)-3-(5-morpholino-5-oxopent-1-yn-1-yl)-N-(piperidin-3-yl)benzamide]	430 nM	–
CCn1cc(-c2cc3c(N(C(=O)c4ccc(-n5nnc6cccnc65)cc4F)[C@@H]4CCCNC4)nccc3s2)cn1 [Example 436, N-[2-(1-ethylpyrazol-4-yl)thieno[3,2-c]pyridin-4-yl]-2-fluoro-N-[(3R)-3-piperidyl]-4-(triazolo[4,5-b]pyridin-3-yl)benzamide]	270 nM	–
Cc1noc(-c2ccc(C(=O)N(c3nccc4scc(C)c34)[C@@H]3CCCNC3)c(F)c2)n1 [Example 778, (R)-2-fluoro-4-(3-methyl-1,2,4-oxadiazol-5-yl)-N-(3-methylthieno[3,2-c]pyridin-4-yl)-N-(piperidin-3-yl)benzamide]	280 nM	–

Second part, led by results:

IC50 [1]	SMILES	IC50
150 nM	Cc1cccc2ccnc(N(C(=O)c3ccc(Nc4nccc(N(C)C5CCCC5)n4)cc3F)[C@@H]3CCCNC3)c12 [Example 948, 4-({4-[cyclopentyl(methyl)amino]pyrimidin-2-yl}amino)-2-fluoro-N-(8-methylisoquinolin-1-yl)-N-[(3R)-piperidin-3-yl]benzamide]	–
> 10000 nM	O=C(O)CCc1ccc2c(N(C(=O)c3ccc(-n4nnc5cccnc54)cc3F)[C@@H]3CCCNC3)nccc2c1 [Example 407]	–
> 5900 nM	Cc1cc(F)cc2ccnc(N(C(=O)c3ccc(-c4cn(C)nn4)cc3F)[C@H]3CCCNC3)c12 [Example 620, 2-fluoro-N-(6-fluoro-8-methyl-1-isoquinolyl)-4-(1-methyltriazol-4-yl)-N-[(3S)-3-piperidyl]benzamide]	–
130 nM	COC(=O)[C@H]1CCCN1c1ccnc(Nc2ccc(C(=O)N(c3nccc4cccc(C)c34)[C@@H]3CCCNC3)c(F)c2)n1 [Example 965, methyl (2-((3-fluoro-4-((8-methylisoquinolin-1-yl)((R)-piperidin-3-yl)carbamoyl)phenyl)amino)pyrimidin-4-yl)-D-prolinate]	–
79 nM	Cn1ccc2ccnc(N(C(=O)c3ccc(-n4nnc5cccnc54)cc3F)[C@@H]3CCCNC3)c21 [Example 317, (R)-4-(3H-[1,2,3]triazolo[4,5-b]pyridin-3-yl)-2-fluoro-N-(1-methyl-1H-pyrrolo[2,3-c]pyridin-7-yl)-N-(piperidin-3-yl)benzamide]	–
480 nM	Cc1nnc(-c2ccc(C(=O)N(c3nccc4c(Cl)ccc(C)c34)[C@@H]3CCCNC3)nc2)s1 [Example 857, N-(5-chloro-8-methyl-1-isoquinolyl)-5-(5-methyl-1,3,4-thiadiazol-2-yl)-N-[(3R)-3-piperidyl]pyridine-2-carboxamide]	–
130 nM	Cc1nnc(-c2ccc(C(=O)N(c3nccc4cc(F)cc(C)c34)[C@@H]3CCCNC3)cn2)s1 [Example 647, N-(6-fluoro-8-methyl-1-isoquinolyl)-6-(5-methyl-1,3,4-thiadiazol-2-yl)-N-[(3R)-3-piperidyl] pyridine-3-carboxamide]	–
550 nM	Cc1cccc2ccnc(N(C(=O)N3CCC[C@@H](c4ccc(-n5cc6cccc(C(N)=O)c6n5)cc4)C3)[C@@H]3CCCNC3)c12 [Example 339, 2-(4-((S)-1-((8-methylisoquinolin-1-yl)((R)-piperidin-3-yl)carbamoyl)piperidin-3-yl)phenyl)-2H-indazole-7-carboxamide]	–
140 nM	Cc1cc(Cl)cc2ccnc(N(C(=O)c3ccc(-c4nnn(C)c4C)cc3)[C@@H]3CCCNC3)c12 [Example 771, (R)—N-(6-chloro-8-methylisoquinolin-1-yl)-4-(1,5-dimethyl-1H-1,2,3-triazol-4-yl)-N-(piperidin-3-yl)benzamide]	–
510 nM	Cc1cc(-c2cn(C)nn2)ccc1C(=O)N(c1nccc2cccc(C)c12)C1CCCNC1 (centres unmarked) [Example 705, 2-methyl-4-(1-methyl-1H-1,2,3-triazol-4-yl)-N-(8-methylisoquinolin-1-yl)-N-(piperidin-3-yl)benzamide]	–
